The values below come from patent publication US20070287738A1, “Substituted Cyanopyridines as protein kinase inhibitors” (priority 2006, published 2007).

T1 sequence (Q04759 whole entry): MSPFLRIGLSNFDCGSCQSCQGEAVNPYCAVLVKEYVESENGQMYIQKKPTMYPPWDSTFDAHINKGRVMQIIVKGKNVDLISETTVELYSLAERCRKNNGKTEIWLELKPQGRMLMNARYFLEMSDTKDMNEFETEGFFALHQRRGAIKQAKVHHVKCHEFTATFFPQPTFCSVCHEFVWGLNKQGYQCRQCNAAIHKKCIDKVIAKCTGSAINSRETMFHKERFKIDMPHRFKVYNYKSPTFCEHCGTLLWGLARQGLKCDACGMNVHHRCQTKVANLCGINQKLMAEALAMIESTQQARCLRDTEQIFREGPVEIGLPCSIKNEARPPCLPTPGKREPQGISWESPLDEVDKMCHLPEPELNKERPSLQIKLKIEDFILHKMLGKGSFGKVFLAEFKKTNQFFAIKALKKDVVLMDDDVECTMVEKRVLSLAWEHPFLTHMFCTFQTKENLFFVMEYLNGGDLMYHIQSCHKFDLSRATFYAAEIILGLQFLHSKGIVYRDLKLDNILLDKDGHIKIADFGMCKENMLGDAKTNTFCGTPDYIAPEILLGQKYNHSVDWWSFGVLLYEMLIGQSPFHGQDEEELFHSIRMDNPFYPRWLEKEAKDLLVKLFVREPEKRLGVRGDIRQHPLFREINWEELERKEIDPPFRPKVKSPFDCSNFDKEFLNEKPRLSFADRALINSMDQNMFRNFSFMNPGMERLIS

One assay addresses T1, human PKCθ full length enzyme (Homo sapiens, UniProt Q04759).
T1 construct: human PKCθ full length enzyme (Panvera Cat# P2996); purchased Panvera P2996
In words: PKCθ IMAP assay. Conditions: full length enzyme 1 nM; ATP 6 μM; peptide 100 nM; FP readout; average value. The class given is biochemical. The protocol: The materials used include the following: human PKCθ full length enzyme (Panvera Cat# P2996); substrate peptide: 5FAM-RFARKGSLRQKNV-OH (Molecular Devices, RP7032); ATP (Sigma Cat # A2383); DTT (Pierce, 20291); 5× kinase reaction buffer (Molecular Devices, R7209); 5× binding buffer A (Molecular Devices, R7282), 5× binding buffer B (Molecular Devices, R7209); IMAP Beads (Molecular Devices, R7284); and 384-well plates (Corning Costar, 3710).
The reaction buffer was prepared by diluting the 5× stock reaction buffer and adding DTT to obtain a concentration of 3.0 mM. The binding buffer was prepared by diluting the 5× binding buffer A. A master mix solution was prepared using a 90% dilution of the reaction buffer containing 2× ATP (12 uM) and 2× peptide (200 nm). Compounds were diluted in DMSO to 20× of the maximum concentration for the IC50 measurement. 27 μl of the master mix solution for each IC50 curve was added to the first column in a 384-well plate and 3 μl of 20× compound in DMSO was added to each well. The final concentration of compound was 2× and 10% DMSO. DMSO was added to the rest of the master mix to increase the concentration to 10%. 10 μl of the master mix containing 10% DMSO was added to the rest of the wells on the plate except the 2nd column. 20 μl was transferred from the first column to the 2nd column.
The compounds were serially diluted in 2:1 ratio starting from the 2nd column. A 2× (2 nM) PKCθ solution was made in the reaction buffer. 10 μl of the PKCθ solution was added to every well to achieve these final concentrations: PKCθ—1 nM; ATP—6 μM; peptide—100 nM; DMSO—5%. Samples were incubated for 25 minutes at room temperature. The binding reagent was prepared by diluting the beads in 1× binding buffer to 800:1. 50 μl of the binding reagent was added to every well and incubated for 20 minutes. FP was measured using Envision2100 (PerkinElmer Life Sciences). Wells with no ATPs and wells with no enzymes were used as controls.
`COc1ccc(-c2cncc(C#N)c2Nc2cccc(NC(C)=O)c2)cc1OC` [Compound 127, N-(3-{[3-cyano-5-(3,4-dimethoxyphenyl)pyridin-4-yl]amino}phenyl) acetamide]: the midpoint of inhibition, the IC50, lay at 570 nM. In the case of `COc1ccc(-c2cncc(C#N)c2Nc2cccc(N(C)C(C)=O)c2)cc1OC` [Compound 128, N-(3-{[3-cyano-5-(3,4-dimethoxyphenyl)pyridin-4-yl]amino}phenyl)-N-methylacetamide], the IC50 turned out to be 35000 nM.

Take `COc1ccc(-c2cncc(C#N)c2Nc2cccc(NS(C)(=O)=O)c2)cc1OC` [Compound 129, N-(3-{[3-cyano-5-(3,4-dimethoxyphenyl)pyridin-4-yl]amino}phenyl)methanesulfonamide]: half-maximal inhibition (IC50) required 36000 nM.

For the compound `COc1cccc(Nc2c(C#N)cncc2-c2ccc(N(C)C)cc2)c1` [Compound 130, 5-[4-(dimethylamino)phenyl]-4-[(3-methoxyphenyl)amino]nicotinonitrile], half-maximal inhibition (IC50) was put at 800 nM. The same measure, in the same setting: in the case of `CN(C)c1ccc(-c2cncc(C#N)c2Nc2cccc(F)c2)cc1` [Compound 131, 5-[4-(dimethylamino)phenyl]-4-[(3-fluorophenyl)amino]nicotinonitrile] it was 710 nM; in that of `CN(C)c1ccc(-c2cncc(C#N)c2Nc2ccc(C#N)cc2)cc1` [Compound 133, 4-[(4-cyanophenyl)amino]-5-[4-(dimethylamino)phenyl]nicotinonitrile], 30000 nM; in that of `CN(C)c1ccc(-c2cncc(C#N)c2Nc2ccc(F)c(F)c2)cc1` [Compound 134, 4-[(3,4-difluorophenyl)amino]-5-[4-(dimethylamino)phenyl]nicotinonitrile], 2030 nM. For `CN(C)c1ccc(-c2cncc(C#N)c2Nc2cccc([N+](=O)[O-])c2)cc1` [Compound 152, 5-[4-(dimethylamino)phenyl]-4-[(3-nitrophenyl)amino]nicotinonitrile], inhibition was half-maximal at 7840 nM (IC50). On the same count and under the same terms, with `COc1cccc(-c2cncc(C#N)c2Nc2cccc([N+](=O)[O-])c2)c1` [Compound 153, 5-(3-methoxyphenyl)-4-[(3-nitrophenyl)amino]nicotinonitrile] the figure was 9630 nM; with `COc1cccc(Nc2c(C#N)cncc2-c2cccc(OC)c2)c1` [Compound 154, 5-(3-methoxyphenyl)-4-[(3-methoxyphenyl)amino]nicotinonitrile], 1730 nM; with `COc1cccc(-c2cncc(C#N)c2Nc2cccc(F)c2)c1` [Compound 155, 4-[(3-fluorophenyl)amino]-5-(3-methoxyphenyl)nicotinonitrile], 1570 nM.

`COc1cccc(-c2cncc(C#N)c2Nc2ccc(C(=O)O)cc2)c1` [Compound 156, 4-{[3-cyano-5-(3-methoxyphenyl)pyridin-4-yl]amino}benzoic acid] gave an IC50 of 46400 nM. The same measure, in the same setting: in the case of `COc1cccc(-c2cncc(C#N)c2Nc2ccc(C#N)cc2)c1` [Compound 157, 4-[(4-cyanophenyl)amino]-5-(3-methoxyphenyl)nicotinonitrile] it was greater than 95000 nM. The compound `COc1cccc(-c2cncc(C#N)c2Nc2ccc(F)c(F)c2)c1` [Compound 158, 4-[(3,4-difluorophenyl)amino]-5-(3-methoxyphenyl)nicotinonitrile] registered an IC50 of 2400 nM. Take `COc1ccc(-c2cncc(C#N)c2Nc2cccc(O)c2)cc1OC` [Compound 159, 5-(3,4-dimethoxyphenyl)-4-[(3-hydroxyphenyl)amino]nicotinonitrile]: half-maximal inhibition (IC50) required 310 nM.

`COc1ccc(-c2cncc(C#N)c2Nc2cccc(OCCO)c2)cc1OC` [Compound 160, 5-(3,4-dimethoxyphenyl)-4-{[3-(2-hydroxyethoxy)phenyl]amino}nicotinonitrile] had an IC50 of 5210 nM.

`COc1ccc(-c2cncc(C#N)c2Nc2cccc(OC[C@@H](N)Cc3ccccc3)c2)cc1OC` [Compound 161, 4-[(3-{[(2S)-2-amino-3-phenylpropyl]-oxy}-phenyl)amino]-5-(3,4-dimethoxyphenyl)nicotinonitrile] returned an IC50 of 820 nM. Compound `N#Cc1cncc(-c2cc3cc(C=O)ccc3s2)c1Nc1cc(O)ccc1Cl` [Compound 162, 4-[(2-chloro-5-hydroxyphenyl)amino]-5-(5-formyl-1-benzothein-2-yl)nicotinonitrile] returned an IC50 of 30 nM. `N#Cc1cncc(-c2cc3cc(CN4CCCCC4)ccc3s2)c1Nc1cc(O)ccc1Cl` [Compound 163, 4-[(2-chloro-5-hydroxyphenyl)amino]-5-[5-(piperidin-1-ylmethyl)-1-benzothien-2-yl]nicotinonitrile] came in with an IC50 of 30 nM. For `N#Cc1cncc(-c2cc3cc(CN4CCCCC4)ccc3s2)c1Nc1cc(OCCO)ccc1Cl` [Compound 164], half-maximal inhibition (IC50) was put at 60 nM. For `Cc1c(N)ccc(Nc2c(C#N)cncc2-c2cc3cc(CN4CCCCC4)ccc3s2)c1C` [Compound 165, 4-[(4-amino-2,3-dimethylphenyl)amino]-5-[5-(piperidin-1-ylmethyl)-1-benzothien-2-yl]nicotinonitrile], half-maximal inhibition (IC50) was put at 650 nM.

Compound `Cc1cc(Nc2c(C#N)cncc2-c2cc3cc(CN4CCCCC4)ccc3s2)ccc1N` [Compound 166, 4-[(4-amino-3-methylphenyl)amino]-5-[5-(piperidin-1-ylmethyl)-1-benzothien-2-yl]nicotinonitrile] registered a half-maximal inhibitory concentration (IC50) of 1060 nM. With `COc1ccc(Cl)c(Nc2c(C#N)cncc2-c2cc3cc(CN4CCCCC4)ccc3o2)c1` [Compound 167, 4-[(2-chloro-5-methoxyphenyl)amino]-5-[5-(piperidin-1-ylmethyl)-1-benzofuran-2-yl]nicotinonitrile], half-maximal inhibition (IC50) required 730 nM. Same read-out and setting: in the case of `Cc1ccc(Cl)c(Nc2c(C#N)cncc2-c2cc3cc(CN4CCCCC4)ccc3o2)c1` [Compound 168, 4-[(2-chloro-5-methylphenyl)amino]-5-[5-(piperidin-1-ylmethyl)-1-benzofuran-2-yl]nicotinonitrile] it was 2040 nM; in that of `N#Cc1cncc(-c2cc3cc(CN4CCCCC4)ccc3o2)c1Nc1cc(O)ccc1Oc1ccccc1` [Compound 169, 4-[(5-hydroxy-2-phenoxyphenyl)amino]-5-[5-(piperidin-1-ylmethyl)-1-benzofuran-2-yl]nicotinonitrile], 650 nM; in that of `COc1ccc(-c2cncc(C#N)c2NCc2cccc(CN)c2)cc1OC` [Compound 170, 4-{[3-(aminomethyl)benzyl]amino}-5-(3,4-dimethoxyphenyl)nicotinonitrile], 11900 nM. As for `N#Cc1cncc(-c2cc3cc(CN4CCCCC4)ccc3o2)c1Nc1cc(O)c(Cl)cc1Cl` [Compound 171, 4-[(2,4-dichloro-5-hydroxyphenyl)amino]-5-[5-(piperidin-1-ylmethyl)-1-benzofuran-2-yl]nicotinonitrile], the 50% inhibitory concentration (IC50) was 270 nM. On the same count and under the same terms, with `COc1ccc(Nc2c(C#N)cncc2-c2cc3cc(CN4CCCCC4)ccc3o2)c(C)c1` [Compound 172, 4-[(4-methoxy-2-methylphenyl)amino]-5-[5-(piperidin-1-ylmethyl)-1-benzofuran-2-yl]nicotinonitrile] the figure was 160 nM.

The target of the next assay is T2, purified recombinant active kinase domain of full length PKC theta (amino acids 362-706) (Homo sapiens, UniProt Q04759).
T2 construct: active kinase domain of full length PKC theta (amino acids 362-706)
T2 sequence (Q04759 362-706): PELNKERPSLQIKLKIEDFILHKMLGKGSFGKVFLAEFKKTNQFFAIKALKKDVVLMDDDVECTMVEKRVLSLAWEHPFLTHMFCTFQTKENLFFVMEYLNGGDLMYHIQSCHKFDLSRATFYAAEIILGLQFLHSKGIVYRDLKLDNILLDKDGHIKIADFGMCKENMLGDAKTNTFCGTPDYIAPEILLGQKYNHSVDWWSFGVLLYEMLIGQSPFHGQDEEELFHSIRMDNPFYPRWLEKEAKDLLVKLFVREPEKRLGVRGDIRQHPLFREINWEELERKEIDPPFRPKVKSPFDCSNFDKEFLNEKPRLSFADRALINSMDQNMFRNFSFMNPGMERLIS
Kind of assay: Radioactive kinase assay for inhibition of the active kinase domain (KD) of PKCθ. Conditions: radioactive (ATP γ P33) assay, average value. The class given is biochemical. The procedure: A Radioactive Kinase Assay for Inhibition of the Active Kinase Domain (KD) of PKCθ
This assay is based on the phosphorylation of a biotinylated substrate by a kinase utilizing radiolabeled ATP (ATP γ P33). The substrate was a biotinylated peptide with a sequence of biotin-FARKGSLRQ-C(O)NH2. The enzyme was purified recombinant active kinase domain of full length PKC theta (amino acids 362-706). The assay buffer was composed of 100 mM Hepes, pH7.5, 2 mM MgCl2, 20 mM β-glycerophosphate and 0.008% TritonX 100. A reaction mixture of ATP, ATP γ P33 (PerkinElmer), DTT, and the enzyme was prepared in the assay buffer and added to a 96-well polypropylene plate. The compound (diluted in DMSO in a separate 96-well polypropylene plate) was added to the reaction mixture and incubated at room temperature. Following the incubation, the peptide substrate was added to the reaction mixture to initiate the enzymatic reaction. The reaction was terminated with the addition of a stop solution (100 mM EDTA, 0.2% TritonX100, and 20 mM NaHPO4) and transferred from the assay plate to a washed streptavidin-coated 96-well scintiplate (PerkinElmer). The scintiplate was incubated at room temperature, washed in PBS with 0.1% TritonX 100, and counted in the 1450 Microbeta Trilux (Wallac, Version 2.60). Counts were recorded for each well as corrected counts per minute (CCPM). The counts were considered corrected because they were adjusted according to a P33 normalization protocol, which corrects for efficiency and background differences between the instrument detectors (software version 4.40.01).
On to `COc1ccc(-c2cncc(C#N)c2Nc2cccc(Cl)c2)cc1OC` [Compound 101, 4-[(3-chlorophenyl)amino]-5-(3,4-dimethoxyphenyl)nicotinonitrile], for which the IC50 came to 6870 nM.

Regarding `COc1ccc(-c2cncc(C#N)c2Nc2cc(F)ccc2F)cc1OC` [Compound 104, 4-[(2,5-difluorophenyl)amino]-5-(3,4-dimethoxyphenyl)nicotinonitrile], the IC50 turned out to be 600 nM.

The IC50 is the concentration that gives 50% inhibition.
